Where two headings read alike, the source gives them in different places.
Target: eNP-CTD (Ebola virus nucleoprotein C-terminal domain, residues 641-739) (Zaire ebolavirus, UniProt P18272)
Assay: biochemical
Assay type: binding

Sequence of eNP-CTD (Ebola virus nucleoprotein C-terminal domain, residues 641-739) (P18272 641-739 limits assumed): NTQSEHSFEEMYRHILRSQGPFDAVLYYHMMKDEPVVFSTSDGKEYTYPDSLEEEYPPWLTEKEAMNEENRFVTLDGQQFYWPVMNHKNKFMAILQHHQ

CNCC1CCN(Cc2cccnc2)CC1 [CC69846, N-methyl-[1-(pyrid-3-ylmethyl)piperid-4-yl]methylamine]
Site 1 ligand efficiency: 1.6 ± 0.2 (0.24)
Site 3 ligand efficiency: 1.9 ± 0.3 (0.24)
Site 4 ligand efficiency: 4.9 ± 1.8 (0.20)
Kd (Site 1 Kd ± Std. Error): 1600 µM
Kd (Site 3 Kd ± Std. Error): > 1630 µM
Kd (Site 4 Kd ± Std. Error): > 1630 µM
Site 2 Kd ± Std. Error (pH 7): did not bind
Site 4 Kd ± Std. Error (pH 7): lower affinity
Kd (read-out: Site 2 Kd ± Std. Error, pH 7): > 7000 µM
